The target of one test is T1, human factor XIa (Homo sapiens, UniProt P03951).
T1 construct: purchased Haemochrom Diagnostica GmbH, Essen, Germany
T1 sequence (P03951 388-625 limits assumed): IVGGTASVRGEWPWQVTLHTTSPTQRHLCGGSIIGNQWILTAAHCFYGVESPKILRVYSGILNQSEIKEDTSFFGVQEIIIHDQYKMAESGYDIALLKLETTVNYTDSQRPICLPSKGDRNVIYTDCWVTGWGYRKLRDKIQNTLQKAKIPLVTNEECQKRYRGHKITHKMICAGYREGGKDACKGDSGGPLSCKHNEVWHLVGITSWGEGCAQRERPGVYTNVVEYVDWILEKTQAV
T1 sequence (P03951 19-387 partner limits assumed): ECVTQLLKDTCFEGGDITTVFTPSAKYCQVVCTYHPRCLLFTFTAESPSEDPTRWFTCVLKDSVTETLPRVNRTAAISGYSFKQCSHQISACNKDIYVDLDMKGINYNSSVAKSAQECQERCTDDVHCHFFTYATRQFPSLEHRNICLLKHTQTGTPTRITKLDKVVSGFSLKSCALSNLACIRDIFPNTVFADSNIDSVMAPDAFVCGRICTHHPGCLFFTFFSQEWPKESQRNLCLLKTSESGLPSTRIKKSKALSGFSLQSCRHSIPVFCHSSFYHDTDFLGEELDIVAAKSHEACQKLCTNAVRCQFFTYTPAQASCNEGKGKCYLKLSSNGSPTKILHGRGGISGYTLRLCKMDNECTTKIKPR
The test can be described thus: Inhibitory constants for factor XIa (substrate H-D-Lys(Z)-Pro-Arg-pNA, Chromozym PCa). In kind it is biochemical. The conditions noted are these: read-out: Ki F XIa. On the procedure:
(§1) The inhibitory effect for the individual enzymes was determined in analogy with a method which has already been described (Stürzebecher et al., J. Med. Chem. 40, 3091-3099, 1997).
(§2) After 3 min, the reaction was terminated by adding 25 μl of acetic acid (50%) and the absorption at […] was determined using a Microplate Reader (Labsystems iEMS Reader MF). The Ki values were determined, in accordance with Dixon (Biochem. J. 55, 170-171, 1953), by means of linear regression and using a computer program. The Ki values are the mean of at least three determinations.
(§3) The inhibition of factor XIa and factor XIIa was determined in an analogous manner. When determining the inhibitory constants for human factor XIa (Haemochrom Diagnostica GmbH, Essen, Germany), H-D-Lys(Z)-Pro-Arg-pNA (Chromozym PCa, Roche Diagnostics GmbH, Mannheim, Germany) was used as the substrate.
Sequence of plasma kallikrein (PK) (P03952 391-638 limits assumed, species assumed): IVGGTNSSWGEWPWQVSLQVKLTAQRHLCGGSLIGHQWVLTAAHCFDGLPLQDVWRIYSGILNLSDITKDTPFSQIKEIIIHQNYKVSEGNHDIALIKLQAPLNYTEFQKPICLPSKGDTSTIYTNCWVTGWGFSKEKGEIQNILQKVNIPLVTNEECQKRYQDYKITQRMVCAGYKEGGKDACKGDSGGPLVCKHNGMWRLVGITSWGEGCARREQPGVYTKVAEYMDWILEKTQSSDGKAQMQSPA
Sequence of plasma kallikrein (PK) (P03952 20-390 partner limits assumed, species assumed): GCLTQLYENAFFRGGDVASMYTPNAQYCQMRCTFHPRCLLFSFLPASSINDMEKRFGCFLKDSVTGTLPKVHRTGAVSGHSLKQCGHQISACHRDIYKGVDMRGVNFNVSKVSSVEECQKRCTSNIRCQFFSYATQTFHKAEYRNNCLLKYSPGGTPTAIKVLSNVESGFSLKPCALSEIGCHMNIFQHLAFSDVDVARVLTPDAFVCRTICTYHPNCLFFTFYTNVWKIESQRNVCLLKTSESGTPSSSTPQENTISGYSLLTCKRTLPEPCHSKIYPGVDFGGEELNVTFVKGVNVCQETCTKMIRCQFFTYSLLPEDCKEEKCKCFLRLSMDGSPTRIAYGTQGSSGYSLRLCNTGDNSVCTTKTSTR
Sequence of PK (P03952 391-638 limits assumed): as the sequence (P03952 391-638 limits assumed, species assumed) above
Sequence of PK (P03952 20-390 partner limits assumed): as the sequence (P03952 20-390 partner limits assumed, species assumed) above
As to `N=C(N)c1ccc(CNC(=O)[C@H](CO)NC(=O)[C@@H](CCc2ccccc2)NS(=O)(=O)Cc2ccccc2)cc1` [Inhibitor 67], the Ki stood at 3000 nM.

Consider `N=C(N)c1ccc(CNC(=O)CNC(=O)[C@@H](CCc2ccccc2)NS(=O)(=O)Cc2ccc([N+](=O)[O-])cc2)cc1` [Inhibitor 74], for which the Ki came to 93 nM.

For `N=C(N)c1ccc(CNC(=O)CNC(=O)[C@@H](Cc2cccc(C(=N)N)c2)NS(=O)(=O)Cc2ccccc2)cc1` [Inhibitor 77], the Ki came out at 250 nM.

Consider `N=C(N)NCc1cccc(C[C@@H](NS(=O)(=O)Cc2ccccc2)C(=O)NCC(=O)NCc2ccc(C(=N)N)cc2)c1` [Inhibitor 79], for which the Ki amounted to 220 nM.

On to `N=C(N)NCC[C@@H](NS(=O)(=O)Cc1ccccc1)C(=O)NCC(=O)NCc1ccc(C(=N)N)cc1` [Inhibitor 80], for which the Ki worked out at 490 nM.

`N=C(N)NCCC[C@@H](NS(=O)(=O)Cc1ccccc1)C(=O)NCC(=O)NCc1ccc(C(=N)N)cc1` [Inhibitor 81]: the Ki turned out to be 700 nM.

On to `N=C(N)c1ccc(CNC(=O)CNC(=O)[C@@H](CC2CCCCC2)NS(=O)(=O)Cc2ccccc2)cc1` [Inhibitor 82], for which the Ki came out at 330 nM.

As for `COC(=O)c1ccc(CS(=O)(=O)N[C@H](Cc2cccc(C(=N)N)c2)C(=O)NCC(=O)NCc2ccc(C(=N)N)cc2)cc1` [Inhibitor 84], the inhibition constant Ki stood at 700 nM.

On to `N=C(N)c1ccc(CNC(=O)[C@H](CCCCNC(=O)COCC(=O)NCCOCCOCCOCCOCCOCCOCCOCCN)NC(=O)[C@@H](CO)NS(=O)(=O)Cc2ccccc2)cc1` [Inhibitor 88], for which the Ki came out at 400 nM.

Another test addresses thrombin (UniProt P00735). As to the kind of experiment: Inhibitory constants for thrombin. In kind it is biochemical. As to conditions: read-out: Ki Thrombin.
Turning to `N=C(N)c1ccc(CNC(=O)[C@H](CO)NC(=O)[C@@H](CCc2ccccc2)NS(=O)(=O)Cc2ccccc2)cc1` [Inhibitor 67], the Ki stood at 550 nM.

With `N=C(N)c1ccc(CNC(=O)CNC(=O)[C@@H](CCc2ccccc2)NS(=O)(=O)Cc2ccc([N+](=O)[O-])cc2)cc1` [Inhibitor 74], the Ki was found to be 710 nM.

With `N=C(N)c1ccc(CNC(=O)CNC(=O)[C@@H](Cc2cccc(C(=N)N)c2)NS(=O)(=O)Cc2ccccc2)cc1` [Inhibitor 77], the Ki was 85 nM.

On to `N=C(N)NCc1cccc(C[C@@H](NS(=O)(=O)Cc2ccccc2)C(=O)NCC(=O)NCc2ccc(C(=N)N)cc2)c1` [Inhibitor 79], for which the Ki came to 59 nM.

As for `N=C(N)NCC[C@@H](NS(=O)(=O)Cc1ccccc1)C(=O)NCC(=O)NCc1ccc(C(=N)N)cc1` [Inhibitor 80], the Ki was determined as 2100 nM.

As for `N=C(N)NCCC[C@@H](NS(=O)(=O)Cc1ccccc1)C(=O)NCC(=O)NCc1ccc(C(=N)N)cc1` [Inhibitor 81], the Ki stood at 1400 nM.

As to `N=C(N)c1ccc(CNC(=O)CNC(=O)[C@@H](CC2CCCCC2)NS(=O)(=O)Cc2ccccc2)cc1` [Inhibitor 82], the Ki came out at 23 nM.

Regarding `COC(=O)c1ccc(CS(=O)(=O)N[C@H](Cc2cccc(C(=N)N)c2)C(=O)NCC(=O)NCc2ccc(C(=N)N)cc2)cc1` [Inhibitor 84], the Ki amounted to 530 nM.

On to `N=C(N)c1ccc(CNC(=O)[C@H](CCCCNC(=O)COCC(=O)NCCOCCOCCOCCOCCOCCOCCOCCN)NC(=O)[C@@H](CO)NS(=O)(=O)Cc2ccccc2)cc1` [Inhibitor 88], for which the Ki is 1200 nM.

A further test addresses PK (Homo sapiens, UniProt P03952).
Experiment: not given
As to conditions: read-out: Ki PK (literature); cited from earlier work.
In the case of `CC(=O)N[C@H](Cc1ccccc1)C(=O)N1CCC[C@H]1C(=O)N[C@@H](CCCN=C(N)N)B(O)O` [DuP 714, Ac-D-Phe-Pro-boroarginine], the Ki is 1.6 nM.

As for `N=C(N)NCCCC(C=O)NC(=O)C(Cc1ccccc1)NC(=O)C(Cc1ccccc1)NC(=O)OC12CC3CC(CC(C3)C1)C2` [adamantyloxycarbonyl-D-Phe-Phe-arginal], the Ki is 12 nM.

For the compound `CC(C)(C)C(NC(=O)OC12CC3CC(CC(C3)C1)C2)C(=O)NC(Cc1ccccc1)C(=O)NC(CCCNC(=N)N)C(=O)C(F)(F)F` [adamantyloxycarbonyl-D-tert-butylglycine-Phe-Arg-CF3], the Ki is 2 nM.

For the next test, the target named is T2, human factor XIIa (Homo sapiens, UniProt P00748).
T2 construct: purchased Haemochrom Diagnostica GmbH, Essen, Germany
T2 sequence (P00748 373-615 limits assumed, other chains not shown): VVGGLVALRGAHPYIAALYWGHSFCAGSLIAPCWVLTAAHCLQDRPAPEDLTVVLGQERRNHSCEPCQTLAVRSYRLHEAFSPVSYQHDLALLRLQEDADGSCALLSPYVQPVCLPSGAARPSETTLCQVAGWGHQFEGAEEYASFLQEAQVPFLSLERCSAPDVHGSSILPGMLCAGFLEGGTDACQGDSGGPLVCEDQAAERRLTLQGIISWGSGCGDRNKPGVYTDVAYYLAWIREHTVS
The test can be described thus: Inhibitory constants for factor XIIa (substrate H-D-HHT-Gly-Arg-pNA, Chromozym XII). The conditions noted are these: read-out: Ki F XIIa. In kind it is biochemical. The procedure:
as §1, §2, §3
H-D-HHT-Gly-Arg-pNA (Chromozym XII, Roche Diagnostics GmbH, Mannheim, Germany) was used as the substrate for measuring the inhibitory constants of human factor XIIa (Haemochrom Diagnostica GmbH, Essen, Germany).
`N=C(N)c1ccc(CNC(=O)[C@H](CO)NC(=O)[C@@H](CCc2ccccc2)NS(=O)(=O)Cc2ccccc2)cc1` [Inhibitor 67]: the Ki turned out to be 630 nM.

`N=C(N)c1ccc(CNC(=O)CNC(=O)[C@@H](CCc2ccccc2)NS(=O)(=O)Cc2ccc([N+](=O)[O-])cc2)cc1` [Inhibitor 74]: the Ki stood at 390 nM.

Regarding `N=C(N)c1ccc(CNC(=O)CNC(=O)[C@@H](Cc2cccc(C(=N)N)c2)NS(=O)(=O)Cc2ccccc2)cc1` [Inhibitor 77], the Ki turned out to be 190 nM.

With `N=C(N)NCc1cccc(C[C@@H](NS(=O)(=O)Cc2ccccc2)C(=O)NCC(=O)NCc2ccc(C(=N)N)cc2)c1` [Inhibitor 79], the Ki came to 310 nM.

In the case of `N=C(N)NCC[C@@H](NS(=O)(=O)Cc1ccccc1)C(=O)NCC(=O)NCc1ccc(C(=N)N)cc1` [Inhibitor 80], the Ki came to 340 nM.

Turning to `N=C(N)NCCC[C@@H](NS(=O)(=O)Cc1ccccc1)C(=O)NCC(=O)NCc1ccc(C(=N)N)cc1` [Inhibitor 81], the Ki came to 350 nM.

On to `N=C(N)c1ccc(CNC(=O)CNC(=O)[C@@H](CC2CCCCC2)NS(=O)(=O)Cc2ccccc2)cc1` [Inhibitor 82], for which the Ki is 1400 nM.

`COC(=O)c1ccc(CS(=O)(=O)N[C@H](Cc2cccc(C(=N)N)c2)C(=O)NCC(=O)NCc2ccc(C(=N)N)cc2)cc1` [Inhibitor 84]: the Ki was determined as 380 nM.

Take `N=C(N)c1ccc(CNC(=O)[C@H](CCCCNC(=O)COCC(=O)NCCOCCOCCOCCOCCOCCOCCOCCN)NC(=O)[C@@H](CO)NS(=O)(=O)Cc2ccccc2)cc1` [Inhibitor 88]: the Ki is 21000 nM.

The target in the next test is plasma kallikrein (PK) (Homo sapiens, UniProt P03952). The test can be described thus: Determining the inhibitory constants: inhibition of PK (substrate Bzl-Pro-Phe-Arg-pNA). In kind it is biochemical. The conditions noted are these: Tris buffer pH 8.0, 25° C.; mean of at least three determinations. The procedure:
as §1, §2
In turn, `N=C(N)c1ccc(CNC(=O)[C@H](CO)NC(=O)[C@@H](CCc2ccccc2)NS(=O)(=O)Cc2ccccc2)cc1` [Inhibitor 67] gave a Ki of 19 nM.

In turn, `N=C(N)c1ccc(CNC(=O)CNC(=O)[C@@H](CCc2ccccc2)NS(=O)(=O)Cc2ccc([N+](=O)[O-])cc2)cc1` [Inhibitor 74] came in with a Ki of 51 nM.

Take `N=C(N)c1ccc(CNC(=O)CNC(=O)[C@@H](Cc2cccc(C(=N)N)c2)NS(=O)(=O)Cc2ccccc2)cc1` [Inhibitor 77]: the Ki turned out to be 82 nM.

Compound `N=C(N)NCc1cccc(C[C@@H](NS(=O)(=O)Cc2ccccc2)C(=O)NCC(=O)NCc2ccc(C(=N)N)cc2)c1` [Inhibitor 79] returned an inhibition constant Ki of 75 nM.

`N=C(N)NCC[C@@H](NS(=O)(=O)Cc1ccccc1)C(=O)NCC(=O)NCc1ccc(C(=N)N)cc1` [Inhibitor 80] gave an inhibition constant (Ki) of 68 nM.

In turn, `N=C(N)NCCC[C@@H](NS(=O)(=O)Cc1ccccc1)C(=O)NCC(=O)NCc1ccc(C(=N)N)cc1` [Inhibitor 81] returned a Ki of 74 nM.

In turn, `N=C(N)c1ccc(CNC(=O)CNC(=O)[C@@H](CC2CCCCC2)NS(=O)(=O)Cc2ccccc2)cc1` [Inhibitor 82] came in with a Ki of 100 nM.

`COC(=O)c1ccc(CS(=O)(=O)N[C@H](Cc2cccc(C(=N)N)c2)C(=O)NCC(=O)NCc2ccc(C(=N)N)cc2)cc1` [Inhibitor 84] came in with a Ki of 140 nM.

On to `N=C(N)c1ccc(CNC(=O)[C@H](CCCCNC(=O)COCC(=O)NCCOCCOCCOCCOCCOCCOCCOCCN)NC(=O)[C@@H](CO)NS(=O)(=O)Cc2ccccc2)cc1` [Inhibitor 88], for which affinity was put at a Ki of 220 nM.

The values are drawn from US9365613B2, “Acylated 4-amidino- and -4-guanidinobenzylamines for inhibition of plasma kallikrein” (The Medicines Company (Leipzig) GmbH, priority 2003, dated 2016).
